Measurements: patent US9839214B2, “Solavetivone and 5-epi-beta-vertivone as pest repellants and pesticides” (EVOLVA, INC., priority 2012, dated 2017)

Legend:
[1] = system: bed bug (Cimex lectularius); assay: Extended bed bug repellency, same treated chambers with new bed bugs, Day 2; assay type: in vivo; conditions: for Repellancy / Repellancy, Averages: 0.5% active and 0.1% BHT in acetone on filter paper; for Repellancy / # bed bugs on the treated filter paper: Day 2, new bed bugs; for Repellancy: 50 bed bugs; for Repellancy, Averages / # bed bugs on the treated filter paper, Averages / time for which bed bugs are repelled following treatment: Day 2; for Repellancy, Averages / # bed bugs on the treated filter paper, Averages: average of 0.5-24 hr readings; for # bed bugs on the treated filter paper / # bed bugs on the treated filter paper, Averages: 0.5% active and 0.1% BHT in acetone, of 50 bed bugs; for time for which bed bugs are repelled following treatment: 0.5% active, extended test
Description: The bed bug (Cimex lectularius) treatment chambers described in part A above were used to test the duration of 0.5% solavetivone in acetone repellent effects. At the end of 24 hours, the old bed bugs were removed from each Petri dish and 10 new bed bugs were added to each dish, for a total of 50 bed bugs. The distribution of the new set of bed bugs was recorded at 0.5, 1, 1.5, 2, and 24 hours after their introduction to the chamber (Day 2). Observations were made and repellency was calculated as described in Section A above. […] The bed bug (Cimex lectularius) treatment chambers described in part A above were used to test the duration of 0.5% 5-epi-β-vetivone in acetone repellent effects. At the end of 24 hours, the old bed bugs were removed from each Petri dish and 10 new bed bugs were added to each dish, for a total of 50 bed bugs. The distribution of the new set of bed bugs was recorded at 0.5, 1, 1.5, 2, and 24 hours after their introduction to the chamber (Day 2). Observations were made and repellency was calculated as described in Section A above.

[2] = system: adult bed bugs (Cimex lectularius); assay: Bed bug repellency on half-treated filter paper in Petri dish chambers, Day 1; assay type: in vivo; conditions: for Repellancy / Repellancy, Averages: 0.5% active and 0.1% BHT in acetone on filter paper; for Repellancy / Repellancy, Averages / # bed bugs on the treated filter paper / # bed bugs on the treated filter paper, Averages: Day 1; for Repellancy: 50 bed bugs; for Repellancy, Averages / # bed bugs on the treated filter paper, Averages: average of 0.5-24 hr readings; for # bed bugs on the treated filter paper / # bed bugs on the treated filter paper, Averages: 0.5% active and 0.1% BHT in acetone, of 50 bed bugs; for time for which bed bugs are repelled following treatment: 0.5% active, Day 1 test
Description: A formulation, containing 0.5% solavetivone and 0.1% butylated hydroxytoluene (BHT) in acetone was tested for efficacy for repelling adult bed bugs (Cimex lectularius). Treatment chambers were created by cutting a circular hole in the bottom of 9-cm Petri dishes. A fine mesh nylon cloth was then glued to Petri dishes, covering the holes. The chambers were formed using the inverted Petri dishes with the screened bottoms serving as the tops and the lids forming the base of the chambers. The lids were secured with rubber bands. Five semi-circular pieces of filter paper, with a diameter of 9 cm were arranged so that they were evenly spaced on a sheet of aluminum foil. One (1) mL of 0.5% solavetivone solution, stored at ambient temperature and humidity, was applied to the filter papers. Five untreated semi-circular pieces were marked with the letter “c”, for control, on both sides in pencil or solvent resistant ink. One solavetivone-treated filter paper and one untreated filter paper were placed with the flat sides against each other, creating a full circle, in the lids of five 9-cm Petri dishes, serving as the treatment chambers described above, such that the entire surface of the lid was covered. Prior to addition of the bed bugs, the filter papers were confirmed to be completely dry and free of any residual acetone odor. Ten (10) bed bugs, having received a blood meal no more than 7 days before, were placed onto the untreated piece of paper and covered with the ventilated base of the Petri dish. The containers of each replicate were then kept at ambient laboratory temperature and humidity for the duration of the study. The distribution of the bed bugs on the treated and untreated filter papers was recorded at 0.5, 1, 1.5, 2, and 24 hours after being placed in the containers. Observations were made in darkness with the aid of a red lens flashlight. Gloves and a dust mask were worn by the observer to reduce detection of the bed bugs and to minimize disturbance caused by the observer. Five additional treatment chambers were created as described above, except the treated filter paper was soaked with acetone with 0.1% BHT (control treatment), instead of the 0.5% solavetivone solution. Bed bug distribution in the control chambers were recorded as described for the treatment condition. The solavetivone treatment repellency was calculated from the following equation: R=[(C−T)/C]*100, where R is the % repellency, C is the fraction of bed bugs on the acetone-treated filter papers, and T is the fraction of bed bugs on the solavetivone-treated filter papers. […] A formulation, containing 0.5% 5-epi-β-vetivone and 0.1% butylated hydroxytoluene (BHT) in acetone was tested for efficacy for repelling adult bed bugs (Cimex lectularius). Treatment chambers were prepared as described in Example 1A. Five semi-circular pieces of filter paper, with a diameter of 9 cm were arranged so that they were evenly spaced on a sheet of aluminum foil. One (1) mL of 0.5% 5-epi-β-vetivone solution, stored at ambient temperature and humidity, was applied to the filter papers. Five untreated semi-circular pieces were marked with the letter “c”, for control, on both sides in pencil or solvent resistant ink. One 5-epi-β-vetivone-treated filter paper and one untreated filter paper were placed with the flat sides against each other, creating a full circle, in the lids of five 9-cm Petri dishes, serving as the treatment chambers described above, such that the entire surface of the lid was covered. Prior to addition of the bed bugs, the filter papers were confirmed to be completely dry and free of any residual acetone odor. Ten (10) bed bugs, having received a blood meal no more than 7 days before, were placed onto the untreated piece of paper and covered with the ventilated base of the Petri dish. The containers of each replicate were then kept at ambient laboratory temperature and humidity for the duration of the study. […]

SMILES | Repellancy ([1]; 0.5 hr after introduction) | Repellancy ([1]; 1.0 hr after introduction) | Repellancy ([1]; 1.5 hr after introduction) | Repellancy ([1]; 2.0 hr after introduction) | Repellancy ([1]; 24.0 hr after introduction) | Repellancy, Averages [1] | # bed bugs on the treated filter paper ([1]; 0.5 hr) | # bed bugs on the treated filter paper ([1]; 1.0 hr) | # bed bugs on the treated filter paper ([1]; 1.5 hr) | # bed bugs on the treated filter paper ([1]; 2.0 hr) | # bed bugs on the treated filter paper ([1]; 24.0 hr) | # bed bugs on the treated filter paper, Averages [1] | time for which bed bugs are repelled following treatment [1] | Repellancy ([2]; 0.5 hr) | Repellancy ([2]; 1.0 hr) | Repellancy ([2]; 1.5 hr) | Repellancy ([2]; 2.0 hr) | Repellancy ([2]; 24.0 hr) | Repellancy, Averages [2] | # bed bugs on the treated filter paper ([2]; 0.5 hr) | further results
C=C(C)[C@@H]1CC[C@@]2(C1)C(C)=CC(=O)C[C@H]2C [Solavetivone, solavetivone] | 96.0% | 96.0% | 88.0% | 90.0% | 90.0% | 92.0% | 2 | 2 | 6 | 5 | 5 | 4.0 | at least 48 hours | 92.0% | 90.0% | 92.0% | 96.0% | 98.0% | 93.6% | 4 | # bed bugs on the treated filter paper ([2]; 1.0 hr): 5; # bed bugs on the treated filter paper ([2]; 1.5 hr): 4; # bed bugs on the treated filter paper ([2]; 2.0 hr): 2; # bed bugs on the treated filter paper ([2]; 24.0 hr): 1; # bed bugs on the treated filter paper, Averages [2]: 3.2; time for which bed bugs are repelled following treatment [2]: at least 24 hours
CC1=CC(=O)C[C@@H](C)[C@@]12CCC(=C(C)C)C2 [5-epi-β-vetivone] | 92.0% | 94.0% | 94.0% | 92.0% | 96.0% | 93.6% | 4 | 3 | 3 | 4 | 2 | 3.2 | at least 48 hours | 88.0% | 94.0% | 98.0% | 96.0% | 100.0% | 95.2% | 6 | # bed bugs on the treated filter paper ([2]; 1.0 hr): 3; # bed bugs on the treated filter paper ([2]; 1.5 hr): 1; # bed bugs on the treated filter paper ([2]; 2.0 hr): 2; # bed bugs on the treated filter paper ([2]; 24.0 hr): 0; # bed bugs on the treated filter paper, Averages [2]: 2.4; time for which bed bugs are repelled following treatment [2]: at least 24 hours
